In patent publication US20230035403A1, “Method For Determining Responsiveness To Prostate Cancer Treatment” (Janssen Biotech, Inc., priority 2020, published 2023):

Test system: autologous CD3+ Pan-T cells (CD8+ and CD4+ T cells) with Ad5-transduced CD1c+ Dendritic Cells
Test: Endogenous autologous normal donor restimulation assay (Ad5-transduced dendritic cells)
Type: cell-based, human
Settings: Table 27, restimulation with overlapping 15-mer peptide pools, maximum across sixteen donors
Method: CD1c+ Dendritic Cells (DC) isolated from human normal PBMCs were thawed using media (IMDM (Gibco) supplemented with glutamine, HEPES, 5% human serum (Sigma), and 1× Pen-Strep). DC cells were resuspended in media supplemented with IL-4 (Peprotech, 80 ng/mL) and GM-CSF (Gibco, 80 ng/mL), plated in 6 well microplates, and rested overnight at 37° C. (5% CO2). The following day, DC cells were counted and plated in a 96 well round bottom microplate at a concentration of 30,000 viable cells per well. Ad5 vectors (Vector Biolabs) were dilute in media to an MOI (Multiplicity Of Infection) of 5000 based on Plaque Forming Units. Ad5 vectors for the CEF pool and a “null” were used as controls. DCs were transduced with Ad5 vectors overnight at 37° C. (5% CO2). The following day, the Ad5 vectors were washed off the plate by three sequential centrifugation/aspiration steps using sterile Phosphate Buffered Saline. After the final wash, transduced DCs were resuspended in 100 μL media. Autologous CD3+ Pan-T cells isolated from human normal PBMCs were thawed using media. Pan-T cells were added to the irradiated DCs at 300,000 viable cells per well (100 μL/well). Human IL-15 (Peprotech) was added to all wells at final concentration of 10 ng/mL.
Plates were incubated at 37° C. (5% CO2) for a total of 12 days. Media was refreshed every 2-3 days with IL-15 (10 ng/mL final concentration) and IL-2 (R&D systems, 10 IU/mL final concentration). On day 11 lyophilized peptides (15-mer overlapping peptides) were solubilized in 100% DMSO and pooled by neoantigen to between 5 mg/mL and 20 mg/mL. […]
On day 12, cells were stained for intracellular flow cytometry analysis. […] Cells were washed and resuspended in stain buffer and analyzed using a BD Celesta flow cytometer.
Flow cytometry cell staining analysis was completed using FlowJo v10. […] The CD8+ and CD4+ T cells were analyzed for TNFα/IFNγ expression and the frequency of double positive TNFα/IFNγ CD8+ and the frequency of double positive TNFα/IFNγ CD4+ T cells were recorded. Responses were assessed to be positive when the frequency of double positive TNFα/IFNγ CD8+ or TNFα/IFNγ CD4+ T cells due to stimulation with an experimental peptide pool was increased greater than or equal to 3-fold over the DMSO only negative control for that donor and at least 0.01%.
For three of the neoantigens, an Ad5 vector was designed to transduce normal Dendritic cells with the neoantigens. This assay assessed the ability of the endogenously expressed and presented neoantigens to activate autologous T cells following overlapping 15-mer peptide pools restimulation using the endogenous autologous normal donor restimulation assay described in Example 1 utilizing TNFα and IFNγ production by CD8^+ and CD4^+ T cells as a readout. […]

## YEAGMTLGGKILFFLFLLLPLSPFSLIF [Neoantigen P87]
  Maximum Fold Change Over Background CD4+ cells: 2.41
  Maximum Fold Change Over Background CD8+ cells: 2.47
  Maximum Frequency of TNFα/IFNγ Double Positive CD4+ T cells: 0.079
  Maximum Frequency of TNFα/IFNγ Double Positive CD8+ T cells: 0.39
